Experimental data reported in patent US20250215039A1, “NUCLEOSIDES FOR TREATING CANCER” (PRIMEFOUR THERAPEUTICS, INC., priority 2022, published 2025).
Like-named read-outs stand apart in the source and are kept apart here.

System: cancer cell lines
Assay: Cancer cell proliferation activity (CellTiterGlo, 72 h)
Format: cell-based
Details: 72 h, 72 h, read-out: IC50
Outline: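 Cells seeded overnight at 37 °C, then dosed with compound at 0.1% final DMSO and incubated 72 h at 37 °C (5% or 10% CO2 by medium).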

- IC50 (5637 cell line (bladder)): 8.67 µM
- IC50 (CLS439 cell line (bladder)): > 50 µM
- IC50 (HS729 cell line (muscle)): > 50 µM
- IC50 (JAR cell line (placenta)): > 50 µM
- IC50 (U20S cell line, bone): > 50 µM
- IC50 (Homo sapiens, 22Rv1, 72 h, 22RV1 cell line (prostate)): > 50 µM
- IC50 (Homo sapiens, 786-0, 72 h, 786O cell line (kidney)): > 50 µM
- IC50 (Homo sapiens, A204, 72 h, A204 cell line (muscle)): 1 µM
- IC50 (Homo sapiens, A549, 72 h, A549 cell line, lung): > 50 µM
- IC50 (Homo sapiens, A673, 72 h, A673 cell line (bone)): > 50 µM
- IC50 (Homo sapiens, A2780, 72 h, A2780 cell line (ovary)): > 50 µM
- IC50 (Homo sapiens, A-375, 72 h, A375 cell line (skin)): > 50 µM
- IC50 (Homo sapiens, A-431, 72 h, A431 cell line (skin)): > 50 µM
- IC50 (Homo sapiens, ACHN, ACHN cell line (kidney)): 3.2 µM
- IC50 (Homo sapiens, ASPC1, 72 h, ASPC1 cell line (pancreas)): > 50 µM
- IC50 (Homo sapiens, BT-20, 72 h, BT20 cell line (breast)): > 50 µM
- IC50 (Homo sapiens, BXPC-3, 72 h, BXPC3 cell line (pancreas)): > 50 µM
- IC50 (Homo sapiens, C-33-A, C33A cell line, endometrial): 4.92 µM
- IC50 (Homo sapiens, CAKI-1, 72 h, CAKI1 cell line (kidney)): 1.36 µM
- IC50 (Homo sapiens, COLO 205, 72 h, COLO205 cell line (colon)): > 50 µM
- IC50 (Homo sapiens, COLO-678, 72 h, COLO678 cell line (colon)): > 50 µM
- IC50 (Homo sapiens, Ca-Ski, CASKI cell line, endometrial): > 50 µM
- IC50 (Homo sapiens, Caco-2, 72 h, CACO2 cell line (colon)): > 50 µM
- IC50 (Homo sapiens, Calu-6, 72 h, CALU6 cell line (lung)): > 50 µM
- IC50 (Homo sapiens, DLD-1, 72 h, DLD1 cell line (colon)): > 50 µM
- IC50 (Homo sapiens, DU-145, 72 h, DU145 cell line (prostate)): > 50 µM
- IC50 (Homo sapiens, EFO-21, 72 h, EFO21 cell line (ovary)): > 50 µM
- IC50 (Homo sapiens, EJ-28, 72 h, EJ28 cell line (bladder)): > 50 µM
- IC50 (Homo sapiens, Granta-519, 72 h, GRANTA-519 cell line (hematological)): 1.12 µM
- IC50 (Homo sapiens, HCT-15, 72 h, HCT15 cell line (colon)): > 50 µM
- IC50 (Homo sapiens, HCT-116, 72 h, HCT116 cell line (colon)): > 50 µM
- IC50 (Homo sapiens, HEK293, 72 h, HEK293 cell line (kidney)): > 50 µM
- IC50 (Homo sapiens, HL-60, 72 h, HL-60 cell line (hematological)): > 50 µM
- IC50 (Homo sapiens, HT-29, 72 h, HT29 cell line (colon)): > 50 µM
- IC50 (Homo sapiens, HT-1080, 72 h, HT1080 cell line (connective tissue)): > 50 µM
- IC50 (Homo sapiens, HeLa, HELA cell line, endometrial): > 50 µM
- IC50 (Homo sapiens, HepG2, 72 h, HEPG2 cell line (liver)): > 50 µM
- IC50 (Homo sapiens, Hs-578T, HS578T cell line, breast): > 50 µM
- IC50 (Homo sapiens, IGROV-1, 72 h, IGROV1 cell line (ovary)): > 50 µM
- IC50 (Homo sapiens, IMR-90, 72 h, IMR90 cell line, lung): > 50 µM
- IC50 (Homo sapiens, J82, 72 h, J82 cell line (bladder)): > 50 µM
- IC50 (Homo sapiens, JEG-3, 72 h, JEG3 cell line (placenta)): > 50 µM
- IC50 (Homo sapiens, JIMT-1, 72 h, JIMT1 cell line (breast)): > 50 µM
- IC50 (Homo sapiens, K562, 72 h, K-562 cell line (hematological)): > 50 µM
- IC50 (Homo sapiens, Kasumi 1, 72 h, KASUMI-1 cell line (hematological)): > 50 µM
- IC50 (Homo sapiens, L-363, 72 h, L-363 cell line (hematological)): > 50 µM
- IC50 (Homo sapiens, LoVo, LOVO cell line (colon)): > 50 µM
- IC50 (Homo sapiens, MCF7, 72 h, MCF7 cell line (breast)): > 50 µM
- IC50 (Homo sapiens, MDA-MB-231, 72 h, MDAMB231 cell line (breast)): > 50 µM
- IC50 (Homo sapiens, MDA-MB-435, 72 h, MDAMB435 cell line (skin)): > 50 µM
- IC50 (Homo sapiens, MDA-MB-436, 72 h, MDAMB436 cell line (breast)): > 50 µM
- IC50 (Homo sapiens, MDA-MB-468, 72 h, MDAMB468 cell line (breast)): > 50 µM
- IC50 (Homo sapiens, MG-63, 72 h, MG63 cell line (bone)): > 50 µM
- IC50 (Homo sapiens, MHH-ES-1, 72 h, MHHES1 cell line (bone)): > 50 µM
- IC50 (Homo sapiens, MIA PaCa-2, 72 h, MIAPACA2 cell line (pancreas)): > 50 µM
- IC50 (Homo sapiens, MINO, MINO cell line (hematological)): 0.25 µM
- IC50 (Homo sapiens, MV4-11, 72 h, MV4-11 cell line (hematological)): 3.4 µM
- IC50 (Homo sapiens, NCI-H23, 72 h, NCI-H23 cell line (lung)): > 50 µM
- IC50 (Homo sapiens, NCI-H82, 72 h, NCIH82 cell line (lung)): > 50 µM
- IC50 (Homo sapiens, NCI-H292, 72 h, NCIH292 cell line (lung)): > 50 µM
- IC50 (Homo sapiens, NCI-H460, 72 h, NCIH460 cell line (lung)): 5.15 µM
- IC50 (Homo sapiens, OVCAR-3, 72 h, OVCAR3 cell line (ovary)): > 50 µM
- IC50 (Homo sapiens, OVCAR-4, 72 h, OVCAR4 cell line (ovary)): > 50 µM
- IC50 (Homo sapiens, PANC-1, 72 h, PANC1 cell line (pancreas)): > 50 µM
- IC50 (Homo sapiens, PC-3, 72 h, PC3 cell line (prostate)): > 50 µM
- IC50 (Homo sapiens, PLC-PRF-5, 72 h, PLCPRF5 cell line (liver)): > 50 µM
- IC50 (Homo sapiens, Panc1005, 72 h, PANC1005 cell line (pancreas)): > 50 µM
- IC50 (Homo sapiens, RD, RD cell line (muscle)): > 50 µM
- IC50 (Homo sapiens, Ramos, RAMOS cell line (hematological)): 1.77 µM
- IC50 (Homo sapiens, SAOS-2, 72 h, SAOS2 cell line (bone)): > 50 µM
- IC50 (Homo sapiens, SF-268, 72 h, SF268 cell line (brain)): > 50 µM
- IC50 (Homo sapiens, SF-295, 72 h, SF295 cell line (brain)): > 50 µM
- IC50 (Homo sapiens, SK-BR-3, 72 h, SKBR3 cell line (breast)): 17 µM
- IC50 (Homo sapiens, SK-HEP1, 72 h, SKHEP1 cell line (liver)): > 50 µM
- IC50 (Homo sapiens, SK-LMS-1, 72 h, SKLMS1 cell line (uterus)): > 50 µM
- IC50 (Homo sapiens, SK-MEL-5, 72 h, SKMEL5 cell line, skin): > 50 µM
- IC50 (Homo sapiens, SK-MEL-28, 72 h, SKMEL28 cell line (skin)): > 50 µM
- IC50 (Homo sapiens, SK-N-AS, SKNAS cell line (brain)): > 50 µM
- IC50 (Homo sapiens, SK-N-SH, SKNSH cell line (brain)): > 50 µM
- IC50 (Homo sapiens, SK-OV-3, 72 h, SKOV3 cell line (ovary)): > 50 µM
- IC50 (Homo sapiens, SNB-75, 72 h, SNB75 cell line (brain)): > 50 µM
- IC50 (Homo sapiens, SU-DHL10, 72 h, SU-DHL-10 cell line (hematological)): 1.97 µM
- IC50 (Homo sapiens, SU-DHL-6, 72 h, SU-DHL-6 cell line (hematological)): > 50 µM
- IC50 (Homo sapiens, SW-620, 72 h, SW620 cell line (colon)): > 50 µM
- IC50 (Homo sapiens, T-24, 72 h, T24 cell line (bladder)): > 50 µM
- IC50 (Homo sapiens, TE-671, 72 h, TE671 cell line (muscle)): > 50 µM
- IC50 (Homo sapiens, THP-1, 72 h, THP-1 cell line (hematological)): > 50 µM
- IC50 (Homo sapiens, U-87 MG, U87MG cell line (brain)): > 50 µM
- IC50 (Homo sapiens, UMUC3, 72 h, UMUC3 cell line (bladder)): > 50 µM
- IC50 (Homo sapiens, UO-31, 72 h, UO31 cell line (kidney)): > 50 µM
- IC50 (Homo sapiens, WSU-NHL, WSU-NHL cell line (hematological)): 2.5 µM
- IC50 (MT-3, 72 h, MT3 cell line (breast)): > 50 µM
- IC50 (NCI-H358M, NCIH358M cell line (lung)): > 50 µM
- IC50 (PBMC, PBMC (hematological)): > 50 µM
- IC50 (RD-ES, RDES cell line (bone)): > 50 µM
SMILES: CC[C@]1(CO)O[C@@H](n2cc(F)c(N)nc2=O)C[C@@H]1O [Cpd. No. 2, 4-amino-1-((2R,4S,5R)-5-ethyl-4-hydroxy-5-(hydroxymethyl)tetrahydrofuran-2-yl)-5-fluoropyrimidin-2(1H)-one]
